# Assays:
# CHO, HEK293 = assay: MTT cytotoxicity assay in non-cancer cells; type: cell-based; settings: same concentration ranges
# orthotopic GL261 glioma = assay: Orthotopic glioma model: survivability and tumor lesions; type: in vivo, C57BL/6J mice; settings: 5 injections, sacrificed on 12th day; H8 8 mg/Kg
# Excerpt: Further, to observe the orthotopic brain tumor growth inhibitory efficiency of presently described SR-targeting CH8, we checked survivability among brain tumor-bearing mice following 5 alternate dosing of various treatment groups. Herein, the intraperitoneal injections started on 4th day until 12th day (total 5 injections) since stereotactic-based inoculation of GL261 cells in brain. […] In another set of experiment, animals bearing brain in situ GL261 cells and having 5 injections of various treatments were sacrificed on 12th day to visualize the status of tumor lesions in full brains obtained from respective treatment groups. […] Clearly, the visual effect of respective treatments has reflected on overall survivability of treated mice.
smiles,measurement,setting,value
O=C(CCCN1CCC(O)(c2ccc(Cl)cc2)CC1)c1ccc(F)cc1 [H8],Cytotoxic effects in non-cancer cells,"CHO, HEK293",negligible
same,Tumor sites / lesions in isolated brains,orthotopic GL261 glioma,comparable effect on tumor sites
